Test results: publication PMC12717099, “Peptidoglycan recruitment by a penicillin binding protein” (Nature Communications, 2025)

Tests used:
PBP5 (PBP5_37-678) = assay: NMR chemical shift perturbation titration (2D [1H,15N] TROSY, 2D [1H,13C] ILV methyl HMQC) of stem peptides / PG into PBP5; format: binding, Enterococcus faecium; conditions: peptides up to 1:80 PBP5:SP (SP3 1:1000); PG 1:0.25-1:5
Experimental: Data was processed using Topspin 4.1.4 (Bruker) and analyzed using NMRFAM-SPARKY 1.3 and Poky (build number 20240829)[20],[21]. The sequence-specific backbone assignment of PBP5 is publicly available at BMRBID 51690.
SPs (SP1 to SP7) were titrated into 0.5 mM (^2H,^15N)-labeled and 0.1 mM (^2H,^15N)/^13C ILV labeled PBP5 at molar ratios of 0:1, 5:1, 10:1, 20:1, 40:1, 60:1, and 80:1 (stem peptide/SP:PBP5; molar ratios). 2D [^1H,^15N] TROSY or 2D [^1H,^13C] HMQC spectra were recorded for each titration point. SPs were solubilized in NMR buffer. Chemical shift perturbations (Δδ) between PBP5 and SP bound PBP5 spectra were calculated using Eq. 1,1 Δδppm=ΔδH^2+ΔδX/Y^2 where, X is ^15N or ^13C and Y is the constant i.e., 10 for ^15N and 4 for ^13C.
Residues with significant CSPs were identified by calculating the standard deviation of all CSPs (σ), then excluding any CSPs larger than average+2σ, recalculating σ as a new corrected σ0, and then repetitively removing CSPs above 2σ0 until no additional CSPs can be removed. CSPs above ≥2σ2 was the statistical threshold for ^1H/^15N backbone CSP analysis and ≥2xσ1 for ^1H/^13C methyl ILV data for the interaction of SP1 with PBP5. The same threshold values were used for all other peptides to allow for direct comparison with the SP1/PBP5 interaction. The identical significance analysis was also performed for PenG/ceftaroline saturated PBP5 (1:8 molar ratio of PBP5 to β-lactam antibiotics was used to ensure saturation of an extended time period needed for the SP titrations) SP interaction studies; CSPs above ≥2σ3 was the statistical threshold for ^1H/^15N backbone CSP analysis and ≥2xσ2 for ^1H/^13C methyl ILV data to identify all residues with a statistically significant change in its chemical shift upon SP interaction.
Residue specific KD values were calculated by using Eq. 2[23],2 CSPobs=CSPmax/2PP+S+KD−P+S+KD^2−4[S][P] where P and S are the concentration of PBP5 and SP1, respectively. CSPobs is the experimentally observed chemical shift value and CSPmax is the largest experimentally observed chemical shift value of the residue. […] The lack of saturation was due to the limited amount of available SP peptide due to their difficult synthesis. Residues used for KD calculation were common residues with statistically significant CSPs in the interaction studies of SP1 and SP2 with PBP5 at a 1:80 ratio.

PBP5 = assay: 1D 1H STD NMR of stem peptides with PBP5; format: binding, Enterococcus faecium; conditions: for STD % to SP1: normalised to highest SP1:PBP5 value; for STD amplification factor: protein:peptide 1:100, 2 s saturation, 308 K
From the text: Total saturation time for STD measurements was 2 s.
Overlapped peaks were completely excluded from the analysis.

For D-Ala-D-Ala [SP3], the “interaction with PBP5 by CSPs, in words” value (PBP5 (PBP5_37-678)) was “no CSPs were observed”.

For “D-Lac-L-Ala-D-iGln-Gly-D-Ala-D-Ala [SP4, SP with L-Lys(D-iAsn) replaced by Gly]”, the “STD amplification factor as fraction of highest SP1:PBP5 value” (“STD amplification factor as fraction” for short) (PBP5; 1H DA4β, DLacβ) was 0.2081, the “STD % to SP1” value (PBP5; 1H DA4β, DLacβ) was 20.809% and the STD amplification factor (PBP5; 1H DA4β, DLacβ) was 5.599. The “STD amplification factor as fraction” value (PBP5; 1H DA5α) was 0.5864, the “STD % to SP1” value (PBP5; 1H DA5α) was 58.6405% and the STD amplification factor (PBP5; 1H DA5α) was 15.7792. For the same substance, the “STD amplification factor as fraction” value (PBP5; 1H DA5β) was 0.2717, the “STD % to SP1” value (PBP5; 1H DA5β) was 27.1666% and the STD amplification factor (PBP5; 1H DA5β) was 7.3101. The “STD amplification factor as fraction” value (PBP5; 1H DQ2α,Dlacα,DA4α,LA1α) was 0.3132, the “STD % to SP1” value (PBP5; 1H DQ2α,Dlacα,DA4α,LA1α) was 31.3217% and the STD amplification factor (PBP5; 1H DQ2α,Dlacα,DA4α,LA1α) was 8.428. The “STD amplification factor as fraction” value (PBP5; 1H DQ2β (first listed)) was 0.6761, the “STD % to SP1” value (PBP5; 1H DQ2β (first listed)) was 67.6099% and the STD amplification factor (PBP5; 1H DQ2β (first listed)) was 18.1927. For the same substance, the “STD amplification factor as fraction” value (PBP5; 1H DQ2β (second listed)) was 0.8081, the “STD % to SP1” value (PBP5; 1H DQ2β (second listed)) was 80.8137% and the STD amplification factor (PBP5; 1H DQ2β (second listed)) was 21.7457. For the same substance, the “STD amplification factor as fraction” value (PBP5; 1H DQ2γ) was 0.2977, the “STD % to SP1” value (PBP5; 1H DQ2γ) was 29.7735% and the STD amplification factor (PBP5; 1H DQ2γ) was 8.012. The “STD amplification factor as fraction” value (PBP5; 1H G3α) was 0.19, the “STD % to SP1” value (PBP5; 1H G3α) was 19.0039% and the STD amplification factor (PBP5; 1H G3α) was 5.114. For the same substance, the “STD amplification factor as fraction” value (PBP5; 1H LA1β) was 0.2515, the “STD % to SP1” value (PBP5; 1H LA1β) was 25.1468% and the STD amplification factor (PBP5; 1H LA1β) was 6.767. For the same substance, the “interaction with PBP5 by CSPs, in words” value (PBP5 (PBP5_37-678)) was “interacts with PBP5 very poorly”.

For “D-Lac-L-Ala-D-iGln-L-Lys-D-Ala-D-Ala [SP5]”, the “STD amplification factor as fraction” value (PBP5; 1H D5α) was 0.4969, the “STD % to SP1” value (PBP5; 1H D5α) was 49.685% and the STD amplification factor (PBP5; 1H D5α) was 13.3694. For the same substance, the “STD amplification factor as fraction” value (PBP5; 1H DA4α,LA1α) was 0.2481, the “STD % to SP1” value (PBP5; 1H DA4α,LA1α) was 24.8062% and the STD amplification factor (PBP5; 1H DA4α,LA1α) was 6.675. For the same substance, the “STD amplification factor as fraction” value (PBP5; 1H DA4β, DLacβ) was 0.2031, the “STD % to SP1” value (PBP5; 1H DA4β, DLacβ) was 20.3132% and the STD amplification factor (PBP5; 1H DA4β, DLacβ) was 5.466. The “STD amplification factor as fraction” value (PBP5; 1H DA5β) was 0.283, the “STD % to SP1” value (PBP5; 1H DA5β) was 28.3024% and the STD amplification factor (PBP5; 1H DA5β) was 7.616. For the same substance, the “STD amplification factor as fraction” value (PBP5; 1H DQ2α,Dlacα) was 0.2004, the “STD % to SP1” value (PBP5; 1H DQ2α,Dlacα) was 20.0424% and the STD amplification factor (PBP5; 1H DQ2α,Dlacα) was 5.393. For the same substance, the “STD amplification factor as fraction” value (PBP5; 1H DQ2β (first listed)) was 0.5843, the “STD % to SP1” value (PBP5; 1H DQ2β (first listed)) was 58.4308% and the STD amplification factor (PBP5; 1H DQ2β (first listed)) was 15.7228. For the same substance, the “STD amplification factor as fraction” value (PBP5; 1H DQ2β (second listed)) was 0.7133, the “STD % to SP1” value (PBP5; 1H DQ2β (second listed)) was 71.3266% and the STD amplification factor (PBP5; 1H DQ2β (second listed)) was 19.1928. The “STD amplification factor as fraction” value (PBP5; 1H DQ2γ) was 0.2744, the “STD % to SP1” value (PBP5; 1H DQ2γ) was 27.4437% and the STD amplification factor (PBP5; 1H DQ2γ) was 7.385. For the same substance, the “STD amplification factor as fraction” value (PBP5; 1H K3α) was 0.381, the “STD % to SP1” value (PBP5; 1H K3α) was 38.104% and the STD amplification factor (PBP5; 1H K3α) was 10.2532. For the same substance, the “STD amplification factor as fraction” value (PBP5; 1H K3β) was 0.5122, the “STD % to SP1” value (PBP5; 1H K3β) was 51.2163% and the STD amplification factor (PBP5; 1H K3β) was 13.7815. The “STD amplification factor as fraction” value (PBP5; 1H K3δ) was 0.5418, the “STD % to SP1” value (PBP5; 1H K3δ) was 54.1786% and the STD amplification factor (PBP5; 1H K3δ) was 14.5786. For the same substance, the “STD amplification factor as fraction” value (PBP5; 1H K3ε) was 0.2671, the “STD % to SP1” value (PBP5; 1H K3ε) was 26.7058% and the STD amplification factor (PBP5; 1H K3ε) was 7.186. The “STD amplification factor as fraction” value (PBP5; 1H LA1β) was 0.2119, the “STD % to SP1” value (PBP5; 1H LA1β) was 21.1895% and the STD amplification factor (PBP5; 1H LA1β) was 5.702. For the same substance, the “interaction with PBP5 by CSPs, in words” value (PBP5 (PBP5_37-678)) was “weaker interaction”.

For “D-Lac-L-Ala-D-nGln-L-Lys(D-iAsn)-D-Ala-D-Ala [SP6]”, the “STD amplification factor as fraction” value (PBP5; 1H DA4α,LA1α,DQ2α) was 0.3043, the “STD % to SP1” value (PBP5; 1H DA4α,LA1α,DQ2α) was 30.434% and the STD amplification factor (PBP5; 1H DA4α,LA1α,DQ2α) was 8.1893. The “STD amplification factor as fraction” value (PBP5; 1H DA4β, DLacβ) was 0.3219, the “STD % to SP1” value (PBP5; 1H DA4β, DLacβ) was 32.1881% and the STD amplification factor (PBP5; 1H DA4β, DLacβ) was 8.661. For the same substance, the “STD amplification factor as fraction” value (PBP5; 1H DA5α) was 0.8446, the “STD % to SP1” value (PBP5; 1H DA5α) was 84.4584% and the STD amplification factor (PBP5; 1H DA5α) was 22.7264. The “STD amplification factor as fraction” value (PBP5; 1H DA5β) was 0.4039, the “STD % to SP1” value (PBP5; 1H DA5β) was 40.3917% and the STD amplification factor (PBP5; 1H DA5β) was 10.8688. For the same substance, the “STD amplification factor as fraction” value (PBP5; 1H DQ2β (first listed)) was 0.9448, the “STD % to SP1” value (PBP5; 1H DQ2β (first listed)) was 94.4801% and the STD amplification factor (PBP5; 1H DQ2β (first listed)) was 25.4231. The “STD amplification factor as fraction” value (PBP5; 1H DQ2β (second listed)) was 1.053, the “STD % to SP1” value (PBP5; 1H DQ2β (second listed)) was 105.321% and the STD amplification factor (PBP5; 1H DQ2β (second listed)) was 28.3401. The “STD amplification factor as fraction” value (PBP5; 1H DQ2γ) was 0.4867, the “STD % to SP1” value (PBP5; 1H DQ2γ) was 48.6725% and the STD amplification factor (PBP5; 1H DQ2γ) was 13.097. The “STD amplification factor as fraction” value (PBP5; 1H K3β) was 0.991, the “STD % to SP1” value (PBP5; 1H K3β) was 99.098% and the STD amplification factor (PBP5; 1H K3β) was 26.6657. For the same substance, the “STD amplification factor as fraction” value (PBP5; 1H K3δ) was 0.802, the “STD % to SP1” value (PBP5; 1H K3δ) was 80.2012% and the STD amplification factor (PBP5; 1H K3δ) was 21.5809. For the same substance, the “STD amplification factor as fraction” value (PBP5; 1H LA1β) was 0.4375, the “STD % to SP1” value (PBP5; 1H LA1β) was 43.7522% and the STD amplification factor (PBP5; 1H LA1β) was 11.773. The “STD amplification factor as fraction” value (PBP5; 1H iNα ,Dlacα,K3α) was 0.4025, the “STD % to SP1” value (PBP5; 1H iNα ,Dlacα,K3α) was 40.2497% and the STD amplification factor (PBP5; 1H iNα ,Dlacα,K3α) was 10.8306. For the same substance, the “STD amplification factor as fraction” value (PBP5; 1H iNβ) was 0.4322, the “STD % to SP1” value (PBP5; 1H iNβ) was 43.2239% and the STD amplification factor (PBP5; 1H iNβ) was 11.6309. For the same substance, the “interaction with PBP5 by CSPs, in words” value (PBP5 (PBP5_37-678)) was “more akin to that of SP1 than SP4”.
